The nature of series [1]: Stability in artificial gastric acid at 1 mg/ml assessed as residual rate after 3 hrs by HPLC analysis relative to control. The format is ADME. The settings on record: read-out: Stability.
Series [2] in a line: Stability in artificial gastric acid at 1 mg/ml assessed as residual rate measured immediately by HPLC analysis relative to control. The conditions noted are these: read-out: Stability. It is filed as ADME.
Series [3] in a line: Aqueous solubility of compound. The format is physicochemical. The settings on record: water.
The test system of series [4] is Staphylococcus aureus. Put plainly: Antibacterial activity against methicillin-sensitive Staphylococcus aureus CLSI-based double dilution method. The format is functional.
Series [5] can be described thus: Stability in artificial gastric acid at 1 mg/ml assessed as residual rate after 1 hr by HPLC analysis relative to control. The format is ADME. The conditions noted are these: read-out: Stability.
For series [6], the system named is Staphylococcus aureus. Briefly: Antibacterial activity against methicillin-resistant Staphylococcus aureus CLSI-based double dilution method. It is filed as functional.
A further series concerns Enterococcus faecalis. Briefly: Antibacterial activity against linezolid-resistant Enterococcus faecalis CLSI-based double dilution method. It is filed as functional.
Series [7] can be described thus: Stability in artificial gastric acid at 1 mg/ml assessed as residual rate after 1.5 hrs by HPLC analysis relative to control. The conditions noted are these: read-out: Stability. The format is ADME.
A further series has as its system Enterococcus faecium. Briefly: Antibacterial activity against vancomycin-resistant Enterococcus faecium CLSI-based double dilution method. The format is functional.
A short description of series [8]: Stability in artificial gastric acid at 1 mg/ml assessed as residual rate after 3.5 hrs by HPLC analysis relative to control. The settings on record: read-out: Stability. It is filed as ADME.
Series [9] in a line: Stability in artificial gastric acid at 1 mg/ml assessed as residual rate after 2.5 hrs by HPLC analysis relative to control. It is filed as ADME. The conditions noted are these: read-out: Stability.
The nature of series [10]: Stability in artificial gastric acid at 1 mg/ml assessed as residual rate after 2 hrs by HPLC analysis relative to control. The format is ADME. The settings on record: read-out: Stability.
For series [11], the system named is Staphylococcus aureus. Put plainly: Antibacterial activity against Staphylococcus aureus ATCC 29213 CLSI-based double dilution method. It is filed as functional.
Series [12] in a line: Stability in artificial gastric acid at 1 mg/ml assessed as residual rate after 4 hrs by HPLC analysis relative to control. The format is ADME. The settings on record: read-out: Stability.
The nature of series [13]: Stability in artificial gastric acid at 1 mg/ml assessed as residual rate after 30 mins by HPLC analysis relative to control. The format is ADME. The conditions noted are these: read-out: Stability.

Structures are written as SMILES. Values after ≈ are worked out from the molar mass of the structure shown.

As for `CC(=O)NC[C@H]1CN(c2ccc(-c3ccc(/C=N/N4CCN(C)CC4)cc3)c(F)c2)C(=O)O1`, the remaining at 3 h, 1 mg/ml in [1] amounted to 0%. In [2], the remaining at 0 h, 1 mg/ml stood at 100%. For the same compound, in [3], the solubility stood at 71 µg/mL (≈ 157 µM). Besides, the minimal inhibitory concentration (MIC) with Staphylococcus aureus [4], in the series on Staphylococcus aureus [6], against Enterococcus faecalis, with Enterococcus faecium and against Staphylococcus aureus [11] was 0.0675 µg/mL (≈ 0.149 µM) in each case. Further, the remaining at 1 h, 1 mg/ml in [5] is 40.7%. In series [7], the remaining at 1.5 h, 1 mg/ml was 26.3%. In addition, in [8], the remaining at 3.5 h, 1 mg/ml amounted to 0%. Moreover, the remaining at 2.5 h, 1 mg/ml in series [9] was found to be 0%. Further, in series [10], the remaining at 2 h, 1 mg/ml was found to be 16.1%. In addition, the remaining at 4 h, 1 mg/ml in series [12] was determined as 0%. In addition, the remaining at 0.5 h, 1 mg/ml in series [13] was found to be 97.5%.
Consider `CC(=O)NC[C@H]1CN(c2ccc(-c3ccc(/C=C/C(=O)N4CCNCC4)cc3)c(F)c2)C(=O)O1`, for which the remaining at 3 h, 1 mg/ml in series [1] came to 90.9%. Besides, the remaining at 0 h, 1 mg/ml in series [2] is 100%. For the same compound, in series [3], the solubility worked out at 115 µg/mL (≈ 247 µM). In addition, the MIC against Staphylococcus aureus [4] was 0.5 µg/mL (≈ 1.07 µM); with Staphylococcus aureus [6], 0.5 µg/mL (≈ 1.07 µM); in the series with Enterococcus faecalis, 0.25 µg/mL (≈ 0.536 µM); against Enterococcus faecium, 0.5 µg/mL (≈ 1.07 µM); in the series on Staphylococcus aureus [11] it was 0.5 µg/mL (≈ 1.07 µM). Moreover, the remaining at 1 h, 1 mg/ml in series [5] is 95.2%. For the same compound, the remaining at 1.5 h, 1 mg/ml in series [7] turned out to be 94.9%. The remaining at 3.5 h, 1 mg/ml in series [8] amounted to 89.7%. Further, the remaining at 2.5 h, 1 mg/ml in series [9] worked out at 91.5%. Further, in series [10], the remaining at 2 h, 1 mg/ml amounted to 91.7%. For the same compound, the remaining at 4 h, 1 mg/ml in [12] was 88.7%. Besides, in series [13], the remaining at 0.5 h, 1 mg/ml amounted to 94.9%.
Consider `CC(=O)NC[C@H]1CN(c2ccc(-c3ccc(C(=O)N4CCSCC4)cc3)c(F)c2)C(=O)O1`, for which the MIC in the series on Staphylococcus aureus [4] was 2 µg/mL (≈ 4.37 µM); against Staphylococcus aureus [6] it was 2 µg/mL (≈ 4.37 µM); with Enterococcus faecalis, 4 µg/mL (≈ 8.74 µM); with Enterococcus faecium, 2 µg/mL (≈ 4.37 µM); with Staphylococcus aureus [11] it was 1 µg/mL (≈ 2.19 µM).
Consider `CC(=O)NC[C@H]1CN(c2ccc(-c3ccc(/C=C/C(=O)N4CCSCC4)cc3)c(F)c2)C(=O)O1`, for which the minimum inhibitory concentration (MIC) with Staphylococcus aureus [4] stood at 1 µg/mL (≈ 2.07 µM); in the series with Staphylococcus aureus [6], 2 µg/mL (≈ 4.14 µM); against Enterococcus faecalis it was 2 µg/mL (≈ 4.14 µM); against Enterococcus faecium it was 2 µg/mL (≈ 4.14 µM); against Staphylococcus aureus [11], 1 µg/mL (≈ 2.07 µM).
For the compound `CC(=O)NC[C@H]1CN(c2ccc(-c3ccc(/C=C/C(=O)NC4CCCC4)cc3)c(F)c2)C(=O)O1`, the MIC against Staphylococcus aureus [4], in the series with Staphylococcus aureus [6], in the series on Enterococcus faecalis, in the series with Enterococcus faecium and in the series with Staphylococcus aureus [11] was 1 µg/mL (≈ 2.15 µM) each time.
With `CC(=O)NC[C@H]1CN(c2ccc(-c3ccc(/C=C/C(=O)N4CCCCC4)cc3)c(F)c2)C(=O)O1`, the minimum inhibitory concentration (MIC) against Staphylococcus aureus [4], against Staphylococcus aureus [6], in the series with Enterococcus faecalis, with Enterococcus faecium and against Staphylococcus aureus [11] was 1 µg/mL (≈ 2.15 µM) throughout.
With `CC(=O)NC[C@H]1CN(c2ccc(-c3ccc(C(=O)N4CCNCC4)cc3)c(F)c2)C(=O)O1`, the minimal inhibitory concentration (MIC) in the series on Staphylococcus aureus [4], in the series with Staphylococcus aureus [6], against Enterococcus faecalis, with Enterococcus faecium and against Staphylococcus aureus [11] was 1 µg/mL (≈ 2.27 µM) each time.
In the case of `CC(=O)NC[C@H]1CN(c2ccc(-c3ccc(C(=O)N4CCCCC4)cc3)c(F)c2)C(=O)O1`, the minimum inhibitory concentration (MIC) against Staphylococcus aureus [4], in the series with Staphylococcus aureus [6], against Enterococcus faecalis, in the series on Enterococcus faecium and with Staphylococcus aureus [11] was 1 µg/mL (≈ 2.28 µM) throughout.
In the case of `CC(=O)NC[C@H]1CN(c2ccc(-c3ccc(/C=C/C(=O)N4CCCC4)cc3)c(F)c2)C(=O)O1`, the MIC in the series with Staphylococcus aureus [4], against Staphylococcus aureus [6], with Enterococcus faecalis, against Enterococcus faecium and with Staphylococcus aureus [11] was 1 µg/mL (≈ 2.21 µM) throughout.
Consider `CC(=O)NC[C@H]1CN(c2ccc(-c3ccc(/C=C/C(=O)N4CCC(C)CC4)cc3)c(F)c2)C(=O)O1`, for which the MIC in the series with Staphylococcus aureus [4], with Staphylococcus aureus [6], against Enterococcus faecalis, against Enterococcus faecium and in the series with Staphylococcus aureus [11] was 1 µg/mL (≈ 2.09 µM) each time.
As for `CC(=O)NC[C@H]1CN(c2ccc(-c3ccc(C(=O)NC4CC4)cc3)c(F)c2)C(=O)O1`, the MIC against Staphylococcus aureus [4], in the series on Staphylococcus aureus [6], in the series on Enterococcus faecalis, against Enterococcus faecium and against Staphylococcus aureus [11] was 1 µg/mL (≈ 2.43 µM) each time.
For `CC(=O)NC[C@H]1CN(c2ccc(-c3ccc(C(=O)N4CCOCC4)cc3)c(F)c2)C(=O)O1`, the MIC against Staphylococcus aureus [4], in the series with Staphylococcus aureus [6], against Enterococcus faecalis, against Enterococcus faecium and against Staphylococcus aureus [11] was 2 µg/mL (≈ 4.53 µM) each time.
In the case of `CC(=O)NC[C@H]1CN(c2ccc(-c3ccc(/C=C/C(=O)N4CCOCC4)cc3)c(F)c2)C(=O)O1`, the MIC amounted to 2 µg/mL (≈ 4.28 µM) in the series with Staphylococcus aureus [4]; 2 µg/mL (≈ 4.28 µM) against Staphylococcus aureus [6]; 4 µg/mL (≈ 8.56 µM) against Enterococcus faecalis; 2 µg/mL (≈ 4.28 µM) against Enterococcus faecium; 2 µg/mL (≈ 4.28 µM) against Staphylococcus aureus [11].
Consider `CC(=O)NC[C@H]1CN(c2ccc(-c3ccc(C(=O)N4CCCC4)cc3)c(F)c2)C(=O)O1`, for which the minimal inhibitory concentration (MIC) is 1 µg/mL (≈ 2.35 µM) in the series on Staphylococcus aureus [4]; 1 µg/mL (≈ 2.35 µM) against Staphylococcus aureus [6]; 2 µg/mL (≈ 4.7 µM) in the series on Enterococcus faecalis; 2 µg/mL (≈ 4.7 µM) against Enterococcus faecium; 1 µg/mL (≈ 2.35 µM) against Staphylococcus aureus [11].
With `CC(=O)NC[C@H]1CN(c2ccc(-c3ccc(/C=C/C(=O)NC4CC4)cc3)c(F)c2)C(=O)O1`, the minimum inhibitory concentration (MIC) with Staphylococcus aureus [4], in the series on Staphylococcus aureus [6], with Enterococcus faecalis, against Enterococcus faecium and with Staphylococcus aureus [11] was 1 µg/mL (≈ 2.29 µM) each time.
Turning to `CC(=O)NC[C@H]1CN(c2ccc(-c3ccc(C(=O)NC4CCCC4)cc3)c(F)c2)C(=O)O1`, the minimum inhibitory concentration (MIC) in the series on Staphylococcus aureus [4], in the series on Staphylococcus aureus [6], against Enterococcus faecalis, against Enterococcus faecium and in the series with Staphylococcus aureus [11] was 1 µg/mL (≈ 2.28 µM) each time.
On to `CC(=O)NC[C@H]1CN(c2ccc(N3CCOCC3)c(F)c2)C(=O)O1` [LINEZOLID], for which the minimum inhibitory concentration (MIC) was 1 µg/mL (≈ 2.96 µM) against Staphylococcus aureus [4]; 1 µg/mL (≈ 2.96 µM) against Staphylococcus aureus [6]; greater than 16 µg/mL in the series with Enterococcus faecalis; 2 µg/mL (≈ 5.93 µM) with Enterococcus faecium; 1 µg/mL (≈ 2.96 µM) in the series with Staphylococcus aureus [11].
For the compound `CC(=O)NC[C@H]1CN(c2ccc(-c3ccc(CNCc4cnn[nH]4)cc3)c(F)c2)C(=O)O1` [RADEZOLID], the minimum inhibitory concentration (MIC) in the series on Staphylococcus aureus [4], in the series with Staphylococcus aureus [6], in the series with Enterococcus faecalis, in the series on Enterococcus faecium and in the series on Staphylococcus aureus [11] was 0.5 µg/mL (≈ 1.14 µM) each time.
